Assay [1] concerns four different cancer cell lines (MCF-7, HepG2, MDA-MB-231, HeLa). Kind of assay: MTT cytotoxicity assay, range over the four cell lines. It is filed as cell-based. The conditions noted are these: read-out: IC50 values, range over the tested cancer cell lines. On the procedure:
(§1) The cytotoxic effects of compounds 5a–m were evaluated using a standard MTT method against four different cancer cell lines, namely mammary gland cancer (MCF-7), hepatocellular carcinoma (HepG2), breast cancer (MDA-MB-231), and epithelioid cervix carcinoma (HeLa). […] These findings highlight the potential of these compounds as candidates for further development as cytotoxic agents for cancer treatment.
(§2) The cytotoxicity of compounds 5a–m was assessed against various cancer cell lines and one normal cell line using the described methodology. In brief, the cells were cultured in 96-well plates with a density of 1.0 × 10^4 cells per well, supplemented with 10% fetal bovine serum (FBS), an antibiotic cocktail, and RPMI 11,640 medium. The cells were then incubated for 48 h with 5% CO2 and 100% relative humidity at 37 °C. […] Following treatment, the addition of 20 µL of MTT solution was added to each well and incubation was continued for another 4 h, after which dimethyl sulfoxide (100 µL) was used to dissolve the resulting insoluble formazan. The absorbance was measured at 570 nm using a BioTek EXL 800 plate reader (Agilent Technologies, CA, USA). By comparing the absorbance of treated samples to untreated samples, the relative cell viability percentage was calculated as (A570 of treated samples/A570 of untreated sample) × 100. The IC50 values were determined based on triplicate measurements.

Assay [2] concerns Bcl-2. Kind of assay: Apoptotic protein levels assay (ELISA) in HepG2 cells. In kind it is cell-based. An excerpt: (§3) To validate the mechanism of cell death and the induction of apoptosis caused by compound 5k, the expression levels of some apoptotic proteins were investigated. […] Specifically, the levels of caspase-3 (6.9 folds higher than the control) and Bax (2.6 folds higher than the control) were higher in the group treated with 5k compared to the control group. Caspase-3 is a key enzyme involved in the execution of apoptosis, while Bax is a pro-apoptotic protein that promotes cell death. […] Bcl-2 is a protein that inhibits apoptosis, so the lower levels of Bcl-2 in the 5k treated group further support the notion that treatment with 5k may induce apoptosis in HepG2 cells. […] These findings may have implications for the development of novel therapies for diseases involving abnormal cell death, including cancer. Further studies are warranted in order to elucidate the underlying mechanisms of action of compound 5k and to assess its potential therapeutic applications.
(§4) The ELISA technique was employed to assess the impact of compound 5k on the alteration of protein levels associated with caspase-3, BAX, and Bcl-2. Specifically, the following ELISA kits were utilized: KHO1091 (InvitrogenTM, Grand Island, NY, USA) for caspase-3, EIA-4860 and EIA-4487 for BAX, (DRU International INC., Mountainside, NJ, USA), and 99-0042 (InvitrogenTM, Grand Island, NY, USA) for Bcl-2 for the respective measurements. The experimental procedures were conducted according to the instructions provided by the manufacturers and our recently published article. Initially, HepG2 cells were cultured in triplicate in 96-well plates. Following a 24-h incubation period, the cells were subjected to various concentrations of compound 5k, while a control group was treated with 0.1% DMSO (V/V). After an additional 24-h incubation, the absorbance levels were assessed using a BioTek Synergy H1 Multi-mode Reader (Agilent Technologies, Santa Clara, CA, USA) at wavelengths ranging from 450 to 650 nm.
(In general: An ELISA detects its analyte on a solid surface through an enzyme-linked reagent.)

The test system of assay [3] is caspase-3. The assay is described as above. It is filed as cell-based.
Description: as §3, §4

Assay [4] deals with Bax. Described as above. In kind it is cell-based.
Description: as §3, §4

The subject of assay [5] is breast cancer (MDA-MB-231). Kind of assay: MTT cytotoxicity assay. In kind it is cell-based. As to conditions: Homo sapiens, 24 h exposure, mean ± SD of triplicate. The method, then: as §1, §2
The subject of assay [6] is mammary gland cancer (MCF-7). Kind of assay: MTT cytotoxicity assay. In kind it is cell-based. The conditions noted are these: 24 h exposure, mean ± SD of triplicate. On the procedure: as §1, §2
Assay [7] concerns hepatocellular carcinoma (HepG2). Kind of assay: MTT cytotoxicity assay. It is filed as cell-based. As to conditions: Homo sapiens, 24 h exposure, mean ± SD of triplicate. The method, then: as §1, §2
Background: Formazan colour is commonly taken as a measure of viable cells.

Assay [8] addresses T1, CDK2 (Homo sapiens, UniProt P24941).
T1 construct: purchased
As to the kind of experiment: In vitro protein kinase inhibition assay (ELISA kit). In kind it is biochemical. The conditions noted are these: triplicate. On the procedure:
(§5) In accordance with the documented procedures, fifteen derivatives of the synthesized compounds were evaluated for their inhibitory effects on EGFR, VEGFR-2, Her2, and CDK2 using specific human ELISA kits (Enzyme-Linked Immunosorbent Assay) designed for each respective kinase enzyme. Initially, various concentrations of the synthesized compounds were combined with specific antibodies for each enzyme in individual wells of a 96-well plate, followed by incubation at room temperature for 2.5 h. Subsequently, the plate was washed, and a biotin antibody (100 µL), prepared in-house, was added and allowed to incubate at ambient temperature for 1 h. After another washing step, a solution of streptavidin (100 µL) was introduced to each well and left for 45 min at room temperature. Following a third round of washing, a TMB Substrate (100 µL) reagent was applied to all wells and incubated for 30 min at room temperature. Finally, the reaction was terminated by adding 50 µL of a stop solution, and the absorbance was directly measured at 450 nm. A standard curve was constructed, illustrating the relationship between concentration (X-axis) and absorbance (Y-axis).

Assay [9] concerns the target T2, Her2 (Homo sapiens, UniProt P04626).
T2 construct: purchased
The assay is described as above. It is filed as biochemical. The conditions noted are these: triplicate. On the procedure:
as §5

For assay [10], the target named is T3, VEGFR2 (Homo sapiens, UniProt P35968).
T3 construct: purchased
T3 sequence (P35968 20-1356): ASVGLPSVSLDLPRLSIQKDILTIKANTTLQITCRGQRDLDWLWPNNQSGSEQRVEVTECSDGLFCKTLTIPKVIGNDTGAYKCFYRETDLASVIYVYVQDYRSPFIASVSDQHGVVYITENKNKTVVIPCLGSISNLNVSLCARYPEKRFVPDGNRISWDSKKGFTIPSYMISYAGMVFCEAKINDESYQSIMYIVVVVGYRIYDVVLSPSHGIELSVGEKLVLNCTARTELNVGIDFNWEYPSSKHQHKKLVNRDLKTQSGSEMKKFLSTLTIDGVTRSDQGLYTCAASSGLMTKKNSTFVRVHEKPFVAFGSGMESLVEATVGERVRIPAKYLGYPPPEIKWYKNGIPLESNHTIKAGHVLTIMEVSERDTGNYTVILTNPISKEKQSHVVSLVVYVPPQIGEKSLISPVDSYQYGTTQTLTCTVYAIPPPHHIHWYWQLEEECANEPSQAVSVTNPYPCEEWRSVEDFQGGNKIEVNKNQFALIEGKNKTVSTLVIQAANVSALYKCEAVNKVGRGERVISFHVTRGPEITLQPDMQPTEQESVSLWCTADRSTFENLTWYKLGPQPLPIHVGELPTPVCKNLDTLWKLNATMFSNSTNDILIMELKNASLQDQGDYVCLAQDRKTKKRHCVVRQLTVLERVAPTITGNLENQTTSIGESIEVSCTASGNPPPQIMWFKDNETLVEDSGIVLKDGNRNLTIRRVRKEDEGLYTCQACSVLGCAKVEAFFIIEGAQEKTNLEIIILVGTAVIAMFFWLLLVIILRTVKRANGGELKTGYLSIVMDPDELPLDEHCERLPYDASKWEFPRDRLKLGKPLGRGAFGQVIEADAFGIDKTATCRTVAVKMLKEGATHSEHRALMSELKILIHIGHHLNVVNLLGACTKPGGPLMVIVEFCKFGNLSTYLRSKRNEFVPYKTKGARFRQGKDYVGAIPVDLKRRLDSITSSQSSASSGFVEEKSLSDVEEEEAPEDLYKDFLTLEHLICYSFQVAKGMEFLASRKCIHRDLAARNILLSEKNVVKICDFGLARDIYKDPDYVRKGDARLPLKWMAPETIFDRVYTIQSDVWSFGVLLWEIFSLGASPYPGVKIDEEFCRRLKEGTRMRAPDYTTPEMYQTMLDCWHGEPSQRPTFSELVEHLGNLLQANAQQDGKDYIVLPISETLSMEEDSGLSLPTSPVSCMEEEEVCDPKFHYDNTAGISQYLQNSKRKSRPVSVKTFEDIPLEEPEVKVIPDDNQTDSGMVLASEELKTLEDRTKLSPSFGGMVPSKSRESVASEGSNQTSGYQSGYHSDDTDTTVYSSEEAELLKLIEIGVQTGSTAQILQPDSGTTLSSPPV
Described as above. In kind it is biochemical. The conditions noted are these: triplicate. The method, then: as §5

The target of assay [11] is T4, EGFR (Homo sapiens, UniProt P00533).
T4 construct: purchased
T4 sequence (P00533 25-1210): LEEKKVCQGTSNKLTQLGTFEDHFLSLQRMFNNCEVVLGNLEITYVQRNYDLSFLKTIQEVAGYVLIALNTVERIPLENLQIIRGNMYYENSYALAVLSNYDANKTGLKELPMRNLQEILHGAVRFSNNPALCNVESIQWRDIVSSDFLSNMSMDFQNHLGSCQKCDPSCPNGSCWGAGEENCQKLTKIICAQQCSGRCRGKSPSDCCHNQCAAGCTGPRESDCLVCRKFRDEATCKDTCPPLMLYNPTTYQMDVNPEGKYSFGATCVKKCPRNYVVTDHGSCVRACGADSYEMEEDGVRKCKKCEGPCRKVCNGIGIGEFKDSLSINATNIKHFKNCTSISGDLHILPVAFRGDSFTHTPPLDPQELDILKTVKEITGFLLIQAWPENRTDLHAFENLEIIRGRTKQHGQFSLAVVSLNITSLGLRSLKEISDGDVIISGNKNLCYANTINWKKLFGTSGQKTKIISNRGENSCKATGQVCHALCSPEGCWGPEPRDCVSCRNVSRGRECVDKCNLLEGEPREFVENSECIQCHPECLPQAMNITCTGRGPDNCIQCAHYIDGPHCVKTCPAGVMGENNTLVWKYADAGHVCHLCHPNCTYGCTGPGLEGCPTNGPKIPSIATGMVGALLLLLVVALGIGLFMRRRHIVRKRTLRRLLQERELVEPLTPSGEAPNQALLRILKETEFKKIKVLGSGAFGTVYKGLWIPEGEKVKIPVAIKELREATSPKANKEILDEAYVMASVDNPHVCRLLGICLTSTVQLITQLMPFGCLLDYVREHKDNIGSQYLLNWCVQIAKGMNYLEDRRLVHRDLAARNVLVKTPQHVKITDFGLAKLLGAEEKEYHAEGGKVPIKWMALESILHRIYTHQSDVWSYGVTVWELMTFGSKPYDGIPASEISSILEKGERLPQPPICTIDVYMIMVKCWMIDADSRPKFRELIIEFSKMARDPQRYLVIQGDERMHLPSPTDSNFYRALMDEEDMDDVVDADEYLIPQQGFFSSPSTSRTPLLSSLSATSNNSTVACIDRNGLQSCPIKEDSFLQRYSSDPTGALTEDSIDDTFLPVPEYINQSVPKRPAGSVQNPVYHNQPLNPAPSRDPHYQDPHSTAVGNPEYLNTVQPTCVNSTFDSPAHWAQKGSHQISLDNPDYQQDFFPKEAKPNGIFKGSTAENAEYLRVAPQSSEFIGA
The description is as above. It is filed as biochemical. The conditions noted are these: triplicate. On the procedure:
as §5

Each structure is given as a SMILES string.

T2 sequence (P04626 23-1255): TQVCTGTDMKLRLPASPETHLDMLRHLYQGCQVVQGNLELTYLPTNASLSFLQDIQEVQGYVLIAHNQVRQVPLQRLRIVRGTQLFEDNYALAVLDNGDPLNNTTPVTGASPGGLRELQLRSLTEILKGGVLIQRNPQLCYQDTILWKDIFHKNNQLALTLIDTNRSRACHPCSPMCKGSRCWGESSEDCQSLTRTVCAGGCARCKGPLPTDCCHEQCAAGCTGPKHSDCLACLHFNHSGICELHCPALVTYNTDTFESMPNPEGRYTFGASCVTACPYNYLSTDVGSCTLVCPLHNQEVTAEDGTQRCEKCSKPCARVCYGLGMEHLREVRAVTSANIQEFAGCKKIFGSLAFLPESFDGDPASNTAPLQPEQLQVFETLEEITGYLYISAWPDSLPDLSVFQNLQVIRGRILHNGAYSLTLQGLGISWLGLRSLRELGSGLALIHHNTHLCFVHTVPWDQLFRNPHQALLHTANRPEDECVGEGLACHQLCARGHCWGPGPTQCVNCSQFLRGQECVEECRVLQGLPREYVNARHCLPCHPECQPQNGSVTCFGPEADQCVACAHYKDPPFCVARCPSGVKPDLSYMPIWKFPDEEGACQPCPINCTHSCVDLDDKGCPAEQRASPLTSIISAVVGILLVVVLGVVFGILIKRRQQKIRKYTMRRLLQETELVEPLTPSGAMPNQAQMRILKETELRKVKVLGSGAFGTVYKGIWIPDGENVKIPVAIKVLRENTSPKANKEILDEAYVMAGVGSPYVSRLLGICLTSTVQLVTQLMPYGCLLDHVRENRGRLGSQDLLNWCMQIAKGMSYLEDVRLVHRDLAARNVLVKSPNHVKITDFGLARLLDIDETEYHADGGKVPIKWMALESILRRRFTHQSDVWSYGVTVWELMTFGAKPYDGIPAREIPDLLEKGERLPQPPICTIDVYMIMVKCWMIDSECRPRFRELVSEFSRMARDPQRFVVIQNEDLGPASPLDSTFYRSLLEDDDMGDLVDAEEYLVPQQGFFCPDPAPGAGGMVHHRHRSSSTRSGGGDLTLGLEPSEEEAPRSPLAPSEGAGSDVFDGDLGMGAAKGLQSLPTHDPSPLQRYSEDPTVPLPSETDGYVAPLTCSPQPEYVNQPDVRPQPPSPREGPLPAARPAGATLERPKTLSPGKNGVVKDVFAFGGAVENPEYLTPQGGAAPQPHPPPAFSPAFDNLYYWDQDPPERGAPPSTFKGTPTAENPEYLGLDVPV

The IC50 is the concentration that inhibits the measured activity by half. On to `O=C(N/N=C/c1ccc(Cl)c(Cl)c1)c1ccc(Nc2ncnc3[nH]ccc23)cc1` [Compound 5k, (E)-4-((7H-Pyrrolo[2,3-d]pyrimidin-4-yl)amino)-N’-(3,4-dichlorobenzylidene)benzohydrazide], for which the IC50 in assay [1] was 29 to 59 µM; in [5], 51.4 ± 2.8 µM; in assay [6] it was 59.1 ± 3.5 µM; in [6] (Homo sapiens, MCF7, 24 h) it was 60 µM; in assay [7] it was 41.5 ± 2.6 µM; in [8], 204 nM. The values for the IC50 in assay [9], in assay [10] and in assay [11] were 40 nM, 136 nM and 79 nM, respectively. Further, the “Bcl-2 level relative to the control” value in assay [2] is given as “two-fold lower than the control”. Further, the “Protein Expression (Pg/mL) Bcl-2” value in [2] (24 h, ELISA, control 11.7 ± 0.36) worked out at 5.146 ± 0.09 pg/mL. The “caspase-3 level, folds higher than the control” value in [3] is 6.9 folds. Besides, in assay [3] (24 h, ELISA, control 66.28 ± 4.66), the “Protein Expression (Pg/mL) Caspase-3” value is 453.8 ± 17.4 pg/mL. Besides, the “Bax level, folds higher than the control” value in [4] is 2.6 folds. Also, the “Protein Expression (Pg/mL) Bax” value in assay [4] (24 h, ELISA, control 67.09 ± 4.94) was 173.8 ± 6.61 pg/mL.

The record behind these values is publication PMC10536928, “Discovery of New Pyrrolo[2,3-d]pyrimidine Derivatives as Potential Multi-Targeted Kinase Inhibitors and Apoptosis Inducers” (Pharmaceuticals, 2023).
